Measured values as given in PubChem BioAssay AID624404 (Broad Institute, 2012).
Results filed as inconclusive are left out. Activity calls are given as the source filed them.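 Rule for the calls: active = luciferase signal rise whose fitted curve crosses a set activity limit at or below the top valid tested dose; inconclusive = flat fit with 30 to 70% rise, or poor fit; inactive = signal falling, flat within 30%, or crossing above top dose.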

What follows are molecules tested on D54 LucT luciferase reporter counterscreen, luminescence, 24 h (assay: luciferase activators in glycosylation-insensitive reporter cells, dose response, counter-screen for N-linked glycosylation inhibitor project, D54 LucT cells, luminescence, cherry pick (AID 624404)).

SMILES | AC35
O=C(N/N=C/c1ccc2c(c1)OCO2)C1COc2ccccc2O1 (centres undefined) | 187 nM
O=C(c1ncn(Cc2ccccc2)c1C(=O)N1CCN(c2ccccc2)CC1)N1CCN(c2ccccc2)CC1 | 1230 nM
Clc1ccc(CSc2cnnc3ccccc23)cc1Cl | 2090 nM
Cc1ccc(S(=O)(=O)[N-]c2nc3ccccc3nc2-n2cc[n+](Cc3ccccc3)c2)cc1 | 33.9 nM
OC1CCCN(Cc2ccc3ccc4cccc5ccc2c3c45)C1 (centres undefined) | 890 nM
COc1ccccc1/C=N/NC(=O)c1cc2c(OC)c(OC)ccc2[nH]1 | 987 nM
COc1cccc(C2=NOC(C(=O)NCc3ccc(F)cc3)C2)c1 (centres undefined) | 4170 nM
CCOC(=O)n1c(=O)n(Cc2ccc(OC)cc2)c2ccccc21 | > 19500 nM (inactive)
N=c1c(S(=O)(=O)c2ccc(Cl)cc2)cc2c(=O)n3ccccc3nc2n1CCc1ccccc1 | 564 nM
Cc1cccc([C@@H]2[C@@H]3C(=O)N(Cc4ccccc4)C(=O)[C@@H]3[C@]3(Cc4ccccc4)C(=O)N(c4cccc(F)c4)C(=O)N23)c1 | 4360 nM
Cc1ccc2nc(Cl)c(/C=C/C(=O)c3ccco3)cc2c1 | 1530 nM
COC(=O)/C=C1\C(=O)N(c2nc3ccccc3s2)C(=S)N1c1ccc(F)cc1 | 14.9 nM
c1ccc(CNc2ncnc3c2cnn3-c2ccccc2)cc1 | 719 nM
O=C(Nc1ccc(Cc2ccncc2)cc1)c1ccc([N+](=O)[O-])o1 | 2680 nM
COc1ccc(C2=NOC(C(=O)NCc3cccs3)C2)cc1 (centres undefined) | 1140 nM
O=C(/C=C/Sc1ccccc1)c1ccc(Cl)cc1 | 370 nM
COc1ccccc1/C=C/C(=O)/C=C/c1ccccc1O | 266 nM
CCC(Cc1ccccc1)NC(=O)c1ccc2nc(N3CCOCC3)sc2c1 (centres undefined) | 480 nM
COc1ccc(OC)c2nc3c(C(=O)NCCN(C)C)cccc3nc12 | 384 nM
O=C(COC(=O)Cn1cnc2ccccc21)Nc1cccc2c1C(=O)c1ccccc1C2=O | 459 nM
Cn1c(=O)[nH]c(=O)c2c1nc(SCC(N)=O)n2Cc1cccc(Br)c1 | 421 nM
CC(C)/C=C1\CC/C(=C\c2cccnc2)C1=O | 9160 nM
COCCNC(=O)c1cc(-c2ccccc2OC)on1 | 3840 nM
O=C1Nc2ccccc2/C1=C/c1cnc[nH]1 | 7.09 nM
COC1C(O)C(C)OC(OC2C(Oc3cccc4c(O)c5c(=O)oc6ccc(C)c7c(=O)oc(c34)c5c67)OC(C)C(O)C2O)C1O (centres undefined) | 376 nM
COc1ccc(S(=O)(=O)NCc2ccccn2)cc1NC(=O)c1ccccc1 | 834 nM
c1ccc(-c2cc(-c3nnc4n3N=C(c3ccc5ccccc5c3)CS4)[nH]n2)cc1 | 205 nM

SMILES | AC35
Cc1noc(C)c1COc1ccc(C(=O)NNC(=O)c2ccccc2)cc1 | 271 nM
O=C(CN1CCC(O)(c2cccc(F)c2)CC1)NCCc1c[nH]c2ccccc12 | 972 nM
COc1ccccc1-c1cc(NC=O)c2ncc(-c3cccc(C(=O)N(C)C)c3)n2c1 | 48.3 nM
O=C(Nc1ccncc1)C1CCCN(S(=O)(=O)c2cccc3cccnc23)C1 (centres undefined) | 4670 nM
CC(=O)c1c(C)[nH]c(C(=O)Nc2nccs2)c1C | 379 nM
Cc1cnc(C(=O)Nc2ccc(OC(F)(F)F)cc2)cn1 | 3180 nM
O=C(NCCc1ccccc1)c1cc(-c2ccco2)on1 | 1010 nM
COc1ccccc1-n1cnc2cc(NCc3cccs3)ccc21 | 266 nM
Cc1ccc(S(=O)(=O)Nc2ccc3c(c2)n(C)c(=O)n3C)cc1 | 694 nM
CCc1cccc(CC)c1NC(=O)CN1C2CCCC1CC(NC(=O)Nc1cccc(OC)c1)C2 (centres undefined) | 3140 nM
CC(=O)c1sc(Nc2cccc3ccccc23)nc1C | 4070 nM
CC(C)c1ccc(OCc2ccc(C(=O)N3CCCC3)o2)cc1 | 850 nM
Cn1c(-c2ccccc2)c(/C=N/NC(=O)c2ccc(O)cc2)c2ccccc21 | 319 nM
COc1ccc(Nc2nc3cc(-c4sccc4C)sc3c(=O)n2C)cc1OC | 104 nM
CCOC(=O)c1c(NC(C)=O)sc2c(OCCN(CC)CC)c(Br)ccc12 | 7.67 nM
O=C(CCN1C(=O)/C(=C/c2cccs2)SC1=S)N1CCCCC1 | 4530 nM
CCNc1oc(/C=C/c2ccc(OCC)cc2)nc1C#N | 940 nM
OCCCN=c1cc(-c2ccccc2)oc2ccc(Cl)cc12 | 971 nM
COc1ccc(/C(C)=N/NC(=O)c2ccccc2OCc2ccccc2)c(OC)c1 | 56 nM
O=C(NC1CCCC(C(F)(F)F)C1)c1ccc([N+](=O)[O-])o1 (centres undefined) | 3970 nM
COc1ccc(-c2cc(C(F)F)n3ncc(C(=O)n4ccnc4C)c3n2)cc1 | 2770 nM
CC1(C(=O)NCCC(F)(F)F)Cc2c(-c3cccc(C(F)(F)F)c3)ccnc2O1 (centres undefined) | > 19500 nM (inactive)
COc1cc(NC(=O)c2ccccc2OCc2ccccc2)cc(OC)c1OC | 1080 nM
CC1CN(c2nc(-c3ccccc3)nnc2-c2ccccc2)CC(C)O1 (centres undefined) | 1390 nM
COc1ccc(NC(=O)C2Cc3c(-c4cccc(NC(C)=O)c4)ccnc3O2)cc1OC (centres undefined) | 1830 nM
O=S(=O)(Cc1ccc(Cl)cc1Cl)c1ccc(Cl)cc1 | 1490 nM
CCN(CC)CCNC(=O)c1cc2c(=O)n(C)c3ccccc3c2s1 | 3550 nM
